What was measured:
Test in all cases: cell viability relative to untreated control (ex vivo patient spheroids); higher = less cytotoxic
Settings in all cases: 72 h
Gem030 = test system: Gem030 (ex vivo spheroids of an HRD-positive high-grade serous ovarian cancer)
Experimental: (§1)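 Ex vivo 3D spheroid cultures from dissociated tumours of HGSOC patients (DET3CT platform) were treated for 72 h with dose matrices of carboplatin combined with birinapant or vorinostat (nM). Live (TMRM) and dead (POPO-1) cells were imaged and viability was expressed as % of untreated control.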

Gem119 = test system: Gem119 (ex vivo spheroids of an HRD-positive high-grade serous ovarian cancer)
Experimental: as §1

Gem243 = test system: Gem243 (ex vivo spheroids of an HRD-positive high-grade serous ovarian cancer)
Experimental: as §1

O=C(O)C1(C(=O)O)CCC1.[NH2-].[NH2-].[Pt+2] [Carboplatin] + O=C(CCCCCCC(=O)Nc1ccccc1)NO [Vorinostat]
cell viability [%]
Settings	partner drug concentration 0 nM	partner drug concentration 1 nM	partner drug concentration 10 nM	partner drug concentration 100 nM	partner drug concentration 1000 nM	partner drug concentration 10000 nM
Gem030, carboplatin concentration 10 nM	94	101	104	115	100	47.4
Gem030, carboplatin concentration 100 nM	102	108	107	98.2	101	40.2
Gem030, carboplatin concentration 1000 nM	107	110	115	105	106	41
Gem030, carboplatin concentration 10000 nM	105	116	102	111	91.1	40
Gem030, carboplatin concentration 100000 nM	52.2	87.2	69.8	65.9	67.5	17.9
Gem119, carboplatin concentration 10 nM	102	90	102	93.8	93	26.9
Gem119, carboplatin concentration 100 nM	124	105	103	118	94.6	45.7
Gem119, carboplatin concentration 1000 nM	99.4	110	92	110	92.7	30.3
Gem119, carboplatin concentration 10000 nM	112	93.7	96.1	70.3	100	17.2
Gem119, carboplatin concentration 100000 nM	75.9	50.1	81.2	44.7	58.9	9.6
Gem243, carboplatin concentration 10 nM	90.3	88.4	82.3	101	67.9	19.7
Gem243, carboplatin concentration 100 nM	87.3	98	91.7	90.8	74.3	13.3
Gem243, carboplatin concentration 1000 nM	107	105	47.4	101	68.9	10.1
Gem243, carboplatin concentration 10000 nM	89.9	95.3	101	104	42.1	10.4
Gem243, carboplatin concentration 100000 nM	23.6	21.6	17	11.3	7.3	6.7

O=C(O)C1(C(=O)O)CCC1.[NH2-].[NH2-].[Pt+2] [Carboplatin] + CC[C@H](NC(=O)[C@H](C)NC)C(=O)N1C[C@@H](O)C[C@H]1Cc1c(-c2[nH]c3cc(F)ccc3c2C[C@@H]2C[C@H](O)CN2C(=O)[C@H](CC)NC(=O)[C@H](C)NC)[nH]c2cc(F)ccc12 [Birinapant]
cell viability [%]
Settings	partner drug concentration 0 nM	partner drug concentration 0.1 nM	partner drug concentration 1 nM	partner drug concentration 10 nM	partner drug concentration 100 nM	partner drug concentration 1000 nM
Gem030, carboplatin concentration 10 nM	–	99.1	105	99.7	95.4	59.2
Gem030, carboplatin concentration 100 nM	–	106	115	102	92.5	60.8
Gem030, carboplatin concentration 1000 nM	–	104	91.7	101	88.9	59.8
Gem030, carboplatin concentration 10000 nM	105	102	99.6	94.2	90.1	59.3
Gem030, carboplatin concentration 100000 nM	52.2	60.7	68	68.4	47.1	27.3
Gem119, carboplatin concentration 10 nM	–	83.3	107	102	90.8	67.6
Gem119, carboplatin concentration 100 nM	–	83.6	112	74.4	90.8	66.8
Gem119, carboplatin concentration 1000 nM	–	111	107	100	117	86
Gem119, carboplatin concentration 10000 nM	112	96.4	72.9	116	110	81.3
Gem119, carboplatin concentration 100000 nM	75.9	65.3	86.1	54.4	69.5	62.6
Gem243, carboplatin concentration 10 nM	–	92.7	105	80.2	52.3	13.7
Gem243, carboplatin concentration 100 nM	–	108	105	84.7	41.3	15.9
Gem243, carboplatin concentration 1000 nM	–	95.4	94.8	93.9	45.3	15.2
Gem243, carboplatin concentration 10000 nM	89.9	90.9	77.3	82.9	42.4	13.9
Gem243, carboplatin concentration 100000 nM	23.6	28.8	24.9	14	7.4	6

Reference: the supplement of paper PMC12420376
